Test results published in patent publication US10227315B2, “Mitochondrial uncouplers for treatment of metabolic diseases and cancer” (RUTGERS, THE STATE UNIVERSITY OF NEW JERSEY, priority 2016, dated 2019).

Columns and labels:
[1] = system: mouse myoblast C2C12 cells; assay: Oxygen consumption rate (OCR) assay with Seahorse XF96 or XF24, mitochondrial uncoupling; type: cell-based; settings: 10% fetal bovine serum, in the presence of oligomycin 2.5 μM, read-out: Cmin (minimal concentration to induce ATP synthase-independent OCR increase)
From the text: By definition, mitochondrial uncoupling is the decoupling of mitochondrial electron transport chain activity (mitochondrial oxidation) from ATP synthesis by mitochondrial ATP synthase. Technically, mitochondrial uncoupling activity is defined by the ability of a chemical compound to induce oxygen consumption of cells or isolated mitochondria in the presence of a mitochondrial ATP synthase inhibitor such as oligomycin. Accordingly, we determined mitochondrial uncoupling activity by oxygen consumption rate (OCR) assay with a Seahorse XF96 or a Seahorse XF24 instrument following the vendor's instruction, using mouse myoblast C2C12 cells growing in medium containing 10% fetal bovine serum. […] The minimal concentration (Cmin) of each compound under which OCR is induced in the presence of oligomycin, was determined.

[2] = system: NIH-3T3 cells, or HepG2 cells; assay: Mitochondrial membrane potential assay, TMRE staining; type: cell-based; settings: 2 h; two hours treatment, TMRE 100 nM; read-out: EC50, mitochondrial membrane potential reduction (TMRE staining reduced to about 50%)
Experimental: Mitochondrial uncoupling may also lead to a reduction of mitochondrial membrane potential. We performed mitochondrial membrane potential assay using TMRE (tetramethylrhodamine ethyl ester) staining method with cultured mammalian cells, the NIH-3T3 cells, or HepG2 cells. Cells were seeded onto 6-well plates and cultured in DMEM medium supplemented with 10% fetal bovine serum and 2 mM glutamine. Cells were allowed to grow to logarithmic growth phase prior to experiments. The cells were treated with each individual compound at various concentrations for two hours, followed by staining with TMRE at final concentration of 100 nM for 15 minutes. The cells were then washed once with PBS, and examined under fluorescence microscopy. Cells treated with various concentrations of niclosamide ethanolamine were used as positive control. Reduction of mitochondrial TMRE staining was estimated as a quantification of mitochondrial uncoupling activity. […] The following table (Table II) summarizes the activity of individual compounds in reducing mitochondrial membrane potential in cultured mammalian cells.

| SMILES | minimal effective concentration [1] [µM] | EC50 [2] [µM] |
| --- | --- | --- |
| CN(C)CCc1cc(Cl)cc(C(=O)Nc2nc3ccc(C(F)(F)F)cc3s2)c1O [Compound 2, 5-Chloro-3-(2-(dimethylamino)ethyl)-2-hydroxy-N-(6-(trifluoromethyl)benzo[d]thiazol-2-yl)benzamide] | < 10 | – |
| CS(=O)(=O)NCCc1cc(Cl)cc(C(=O)Nc2nc3ccc(C(F)(F)F)cc3s2)c1O [Compound 3, 5-Chloro-2-hydroxy-3-(2-(methylsulfonamido)ethyl)-N-(6-(trifluoromethyl)benzo[d]thiazol-2-yl)benzamide] | < 10 | – |
| O=C(Nc1nc2ccc(C(F)(F)F)cc2s1)c1cc(Cl)cc2nc(C(F)(F)F)[nH]c12 [Compound 8, 5-Chloro-2-(trifluoromethyl)-N-(6-(trifluoromethyl)benzo[d]thiazol-2-yl)-1H-benzo[d]imidazole-7-carboxamide] | 10 to 25 | 10 to 25 |
| Oc1cc(Nc2nc3ccc(C(F)(F)F)cc3s2)c(C(F)(F)F)cc1C(F)(F)F [Compound 9, 2,4-Bis(trifluoromethyl)-5-((6-(trifluoromethyl)benzo[d]thiazol-2-yl)amino)phenol] | > 25 | > 25 |
| O=C(Nc1ccc([N+](=O)[O-])cc1Cl)c1cc(Cl)ccc1OC(=O)N1CCOCC1 [Compound 13, 4-Chloro-2-((2-chloro-4-nitrophenyl)carbamoyl)phenyl morpholine-4-carboxylate] | < 10 | < 10 |
| O=C(Nc1ccc(C(F)(F)F)cc1Cl)c1cc(Cl)ccc1O [Compound 14, 5-Chloro-N-(2-chloro-4-(trifluoromethyl)phenyl)-2-hydroxybenzamide] | < 10 | < 10 |
| O=C(Nc1ccc(F)cc1Cl)c1cc(Cl)ccc1O [Compound 15, 5-Chloro-N-(2-chloro-4-fluorophenyl)-2-hydroxybenzamide] | < 10 | < 10 |
| N#Cc1ccc(NC(=O)c2cc(Cl)ccc2O)c(Cl)c1 [Compound 16, 5-Chloro-N-(2-chloro-4-cyanophenyl)-2-hydroxybenzamide] | < 10 | < 10 |
| O=C(Nc1nc2c(F)cc(C(F)(F)F)cc2s1)c1cc(Cl)ccc1O [Compound 21, 5-Chloro-N-(4-fluoro-6-(trifluoromethyl)benzo[d]thiazol-2-yl)-2-hydroxybenzamide] | < 10 | < 10 |
| O=C(Nc1nc2c(C(F)(F)F)cc(C(F)(F)F)cc2s1)c1cc(Cl)ccc1O [Compound 22, N-(4,6-Bis(trifluoromethyl)benzo[d]thiazol-2-yl)-5-chloro-2-hydroxybenzamide] | < 10 | < 10 |
| O=C(Nc1nc2cc(C(F)(F)F)ccc2s1)c1cc(Cl)ccc1O [Compound 25, 5-Chloro-2-hydroxy-N-(5-(trifluoromethyl)benzo[d]thiazol-2-yl)benzamide] | > 25 | > 25 |
| O=C(Nc1nc2cccc(C(F)(F)F)c2s1)c1cc(Cl)ccc1O [Compound 26, 5-Chloro-2-hydroxy-N-(7-(trifluoromethyl)benzo[d]thiazol-2-yl)benzamide] | > 25 | > 25 |
| O=C(Nc1nc2c(C(F)(F)F)cccc2s1)c1cc(Cl)ccc1O [Compound 32, 5-Chloro-2-hydroxy-N-(4-(trifluoromethyl)benzo[d]thiazol-2-yl)benzamide ethanolamine] | < 10 | < 10 |
| O=C(Nc1nc2ccc(C(F)(F)F)cc2s1)c1cc(Cl)ccc1O [Compound 33, 5-Chloro-2-hydroxy-N-(6-(trifluoromethyl)benzo[d]thiazol-2-yl)benzamide ethanolamine] | < 10 | < 10 |
| Cc1cc(Cl)cc(C(=O)Nc2nc3c(C(F)(F)F)cccc3s2)c1O [Compound 34, 5-Chloro-2-hydroxy-3-methyl-N-(4-(trifluoromethyl)benzo[d]thiazol-2-yl)benzamide ethanolamine] | – | < 10 |
| O=C(Nc1nc2c(F)cc(F)cc2s1)c1cc(Cl)ccc1O [Compound 35, 5-Chloro-N-(4,6-difluorobenzo[d]thiazol-2-yl)-2-hydroxybenzamide ethanolamine] | – | < 10 |
| O=C(Nc1nc2ccc(C(F)(F)F)cc2s1)c1cc(Cl)cc(C2CC2)c1O [Compound 36, 5-Chloro-3-cyclopropyl-2-hydroxy-N-(6-(trifluoromethyl)benzo[d]thiazol-2-yl)benzamide] | < 10 | < 10 |
| Cc1cc(Cl)cc(C(=O)Nc2nc3ccc(C(F)(F)F)cc3s2)c1O [Compound 37, 5-Chloro-2-hydroxy-3-methyl-N-(6-(trifluoromethyl)benzo[d]thiazol-2-yl)benzamide compound with (2R,3R,4R,5S)-6-(methylamino)hexane-1,2,3,4,5-pentaol (1:1)] | – | < 10 |
| Cc1cc(Cl)cc(C(=O)Nc2nc3cc(C(F)(F)F)ccc3s2)c1O [Compound 41, 5-Chloro-2-hydroxy-3-methyl-N-(5-(trifluoromethyl)benzo[d]thiazol-2-yl)benzamide] | < 10 | < 10 |
| Cc1cc(Cl)cc(C(=O)Nc2nc3cccc(C(F)(F)F)c3s2)c1O [Compound 42, 5-Chloro-2-hydroxy-3-methyl-N-(7-(trifluoromethyl)benzo[d]thiazol-2-yl)benzamide] | > 25 | > 25 |
| O=C(Nc1nc2ccc(C(F)(F)F)cc2s1)c1cc(Cl)cc(CO)c1O [Compound 49, 5-Chloro-2-hydroxy-3-(hydroxymethyl)-N-(6-(trifluoromethyl)benzo[d]thiazol-2-yl)benzamide] | > 25 | > 25 |
| Cc1cc(Cl)cc(C(=O)Nc2nc3c(C(F)(F)F)cc(C(F)(F)F)cc3s2)c1O [Compound 50, N-(4,6-Bis(trifluoromethyl)benzo[d]thiazol-2-yl)-5-chloro-2-hydroxy-3-methylbenzamide] | < 10 | < 10 |
| Cc1cc(Cl)cc(C(=O)Nc2nc3ccc(OC(F)(F)F)cc3s2)c1O [Compound 51, 5-Chloro-2-hydroxy-3-methyl-N-(6-(trifluoromethoxy)benzo[d]thiazol-2-yl)benzamide] | < 10 | < 10 |
| CN(C)CCCc1cc(Cl)cc(C(=O)Nc2nc3ccc(C(F)(F)F)cc3s2)c1O [Compound 52, 5-Chloro-3-(3-(dimethylamino)propyl)-2-hydroxy-N-(6-(trifluoromethyl)benzo[d]thiazol-2-yl)benzamide] | < 10 | – |
| CN(C)Cc1cc(Cl)cc(C(=O)Nc2nc3ccc(C(F)(F)F)cc3s2)c1O [Compound 53, 5-Chloro-3-((dimethylamino)methyl)-2-hydroxy-N-(6-(trifluoromethyl)benzo[d]thiazol-2-yl)benzamide] | < 10 | – |
| CN(C)Cc1cc(Cl)cc(C(=O)Nc2nc3ccc(OC(F)(F)F)cc3s2)c1O [Compound 54, 5-Chloro-3-((dimethylamino)methyl)-2-hydroxy-N-(6-(trifluoromethoxy)benzo[d]thiazol-2-yl)benzamide] | < 10 | – |
| Cc1nc2cc(Cl)cc(C(=O)Nc3nc4ccc(C(F)(F)F)cc4s3)c2[nH]1 [Compound 56, 5-Chloro-2-methyl-N-(6-(trifluoromethyl)benzo[d]thiazol-2-yl)-1H-benzo[d]imidazole-7-carboxamide] | < 10 | – |
| CCc1nc2cc(Cl)cc(C(=O)Nc3nc4ccc(C(F)(F)F)cc4s3)c2[nH]1 [Compound 57, 5-Chloro-2-ethyl-N-(6-(trifluoromethyl)benzo[d]thiazol-2-yl)-1H-benzo[d]imidazole-7-carboxamide] | > 25 | – |
| O=C(Nc1nc2ccc(C(F)(F)F)cc2s1)c1cc(Cl)cc2nn[nH]c12 [Compound 58, 5-Chloro-N-(6-(trifluoromethyl)benzo[d]thiazol-2-yl)-1H-benzo[d][1,2,3]triazole-7-carboxamide] | > 25 | > 25 |
| O=C(Nc1nc2c(F)cc(F)cc2s1)c1cc(Cl)cc2nn[nH]c12 [Compound 59, 5-Chloro-N-(4,6-difluorobenzo[d]thiazol-2-yl)-1H-benzo[d][1,2,3]triazole-7-carboxamide] | > 25 | – |
